Where two headings read alike, the source gives them in different places. Numbered stars: 1 amine (or outer) side, 2 acyl side, 3 side chain; on linkers, the order of the positions; unused ones are H or OH. Bridge positions count the residues as written; N and C are the ends. Square brackets hold non-standard residues; d marks the D form. Peptide text beside a SMILES is read from it. * marks the point of attachment. C20 diacid = O=C(O)CCCCCCCCCCCCCCCCCCC(=O)*; γGlu = O=C(O)[C@H](CCC(=O)[*:2])N[*:1]; Hyp = O=C(O)[C@@H]1C[C@@H](O)CN1; NMeI = CC[C@H](C)[C@H](NC)C(=O)O; Sar = CNCC(=O)O
Tests used:
[1] = molecular target: T1, human amylin receptor 3 (hAMYR3) consisting of hCTR2 co-expressed with human Receptor Activity Modifying Protein 3 (hRAMP3) (Homo sapiens, UniProt O60896+P30988); experiment: hAMYR3 assay: induction of cAMP (AlphaScreen cAMP Assay kit) in COS7 cells expressing hAMYR3; format: cell-based
T1 construct: expressed in transfected cells
T1 sequence (P30988 25-474): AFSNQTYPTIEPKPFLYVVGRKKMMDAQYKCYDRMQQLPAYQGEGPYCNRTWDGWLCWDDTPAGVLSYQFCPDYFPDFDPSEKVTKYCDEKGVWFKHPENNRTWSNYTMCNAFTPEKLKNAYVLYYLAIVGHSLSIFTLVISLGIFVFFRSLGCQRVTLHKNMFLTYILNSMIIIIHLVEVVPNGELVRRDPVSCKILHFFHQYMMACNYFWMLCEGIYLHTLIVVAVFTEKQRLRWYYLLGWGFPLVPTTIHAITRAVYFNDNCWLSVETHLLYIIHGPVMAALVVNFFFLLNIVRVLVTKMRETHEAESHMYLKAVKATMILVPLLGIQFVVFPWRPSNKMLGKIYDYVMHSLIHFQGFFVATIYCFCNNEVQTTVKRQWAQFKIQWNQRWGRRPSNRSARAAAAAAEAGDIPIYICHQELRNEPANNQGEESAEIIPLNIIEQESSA
T1 sequence (O60896 24-148 partner): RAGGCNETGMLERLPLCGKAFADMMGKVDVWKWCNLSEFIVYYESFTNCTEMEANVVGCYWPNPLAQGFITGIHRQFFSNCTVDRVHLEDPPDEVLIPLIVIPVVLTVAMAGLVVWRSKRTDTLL
How it was run: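 Stable COS7 clone co-expressing hCTR2 and hRAMP3, stimulated 15 min at 37° C with increasing peptide in Tyrode buffer pH 7.4 with 100 µM IBMX and 0.1% casein. cAMP measured by AlphaScreen after lysis; EC50 and % efficacy versus pramlintide from 4PL fit.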

[2] = Solubility assessment (turbidity absorbance at 325 nm); format: physicochemical; conditions: stock 2 mg/ml diluted 1:1, ambient temperature (typically 25°C), n=1; for Solubility, Acetate buffer pH 4: 100 mM acetate buffer pH 4.0; for Solubility, Acetate buffer pH 5: 100 mM acetate buffer pH 5.0; for Solubility, Histidine buffer pH 6: 100 mM histidine buffer pH 6.0; for Solubility, Histidine buffer pH 7: 100 mM histidine buffer pH 7.0; for Solubility, Phosphate buffer pH 6: 100 mM phosphate buffer pH 6.0; for Solubility, Phosphate buffer pH 7: 100 mM phosphate buffer pH 7.0; for Solubility, Phosphate buffer pH 7.5: 100 mM phosphate buffer pH7.5
How it was run: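 Stock 2 mg/ml peptide, H2O/HCl pH 2.5; 1:1 into 100 mM buffers: acetate pH 4.0/5.0, His pH 6.0/7.0, phosphate pH 6.0/7.0/7.5. A280 + A325, ~25°C, n=1. Soluble ≥ 1 mg/ml if A325 ≤ 0.02.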

[3] = molecular target: T2, human calcitonin receptor (hCTR2) (Homo sapiens, UniProt P30988); experiment: hCTR2 assay: induction of cAMP (AlphaScreen cAMP Assay kit) in COS7 cells expressing hCTR2; format: cell-based; conditions: cAMP induction in COS7 cells expressing hCTR2; average of a minimum of 3 determinations; read-out: hCTR2 EC50
T2 construct: expressed in transfected cells
T2 sequence (P30988 25-474): T1 sequence (P30988 25-474)
How it was run: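 Stable hCTR2 clone in RAMP-naive COS7 cells; peptides titrated in Tyrode buffer (pH 7.4) with 100 µM IBMX, 0.1% casein, 15 min at 37° C. cAMP read by AlphaScreen after lysis; EC50 and efficacy relative to pramlintide from 4PL fit.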

[4] = cAMP induction in COS7 cells expressing hAMYR3, average of a minimum of 3 determinations, read-out: hAMY R3 EC50

| SMILES | EC50 [1] [pM] | Solubility, Acetate buffer pH 4 [2] | Solubility, Acetate buffer pH 5 [2] | Solubility, Histidine buffer pH 6 [2] | Solubility, Histidine buffer pH 7 [2] | Solubility, Phosphate buffer pH 6 [2] | Solubility, Phosphate buffer pH 7 [2] | Solubility, Phosphate buffer pH 7.5 [2] | EC50 [3] [pM] | EC50 [1, 4] [pM] |
| --- | --- | --- | --- | --- | --- | --- | --- | --- | --- | --- |
| CC[C@H](C)[C@@H](C(=O)N[C@@H](CC(C)C)C(=O)N[C@@H](CO)C(=O)N[C@@H](CO)C(=O)N[C@H](C(=O)N[C@@H](CCC(=O)O)C(=O)N[C@H](C(=O)NCC(=O)N[C@@H](CO)C(=O)N[C@@H](CCC(=O)O)C(=O)N[C@H](C(=O)N1CCC[C@H]1C(N)=O)[C@@H](C)O)C(C)C)[C@@H](C)O)N(C)C(=O)[C@H](C)NC(=O)CN(C)C(=O)[C@H](Cc1ccccc1)NC(=O)[C@H](CO)NC(=O)[C@H](CO)NC(=O)[C@H](CO)NC(=O)[C@H](CO)NC(=O)[C@H](CCCNC(=N)N)NC(=O)[C@H](Cc1c[nH]cn1)NC(=O)[C@H](CC(C)C)NC(=O)[C@H](Cc1ccccc1)NC(=O)[C@H](CCC(=O)O)NC(=O)[C@H](C)NC(=O)[C@H](CC(C)C)NC(=O)[C@H](CCCNC(=N)N)NC(=O)[C@H](CCC(N)=O)NC(=O)[C@@H](NC(=O)[C@H](C)NC(=O)[C@@H]1CSSC[C@H](NC(=O)[C@H](CCCNC(=N)N)NC(=O)CC[C@H](NC(=O)CCCCCCCCCCCCCCCCCCC(=O)O)C(=O)O)C(=O)N2CCC[C@H]2C(=O)N[C@@H]([C@@H](C)O)C(=O)N[C@@H](C)C(=O)N[C@@H]([C@@H](C)O)C(=O)N1)[C@@H](C)O [Compound 129, [19CD]-isoGlu-RC()PTATC()ATQRLAEFLHRSSSSF-Gly(Me)-A-Ile(Me)-LSSTEVGSETP-NH2] ({C20 diacid-γGlu}-RCPTATCATQRLAEFLHRSSSSF[Sar]A[NMeI]LSSTEVGSETP-NH2; disulfide 2-7) | 150 | SS (SS indicates solubility ≥ 1mg/ml) | SS (SS indicates solubility ≥ 1mg/ml) | SS (SS indicates solubility ≥ 1mg/ml) | SS (SS indicates solubility ≥ 1mg/ml) | SS (SS indicates solubility ≥ 1mg/ml) | SS (SS indicates solubility ≥ 1mg/ml) | SS (SS indicates solubility ≥ 1mg/ml) | 150 | – |
| CC[C@H](C)[C@@H](C(=O)N[C@@H](CC(C)C)C(=O)N[C@@H](CO)C(=O)N[C@@H](CO)C(=O)N[C@H](C(=O)N[C@@H](CCC(=O)O)C(=O)N[C@H](C(=O)NCC(=O)N[C@@H](CO)C(=O)N[C@@H](CCC(=O)O)C(=O)N[C@H](C(=O)N1CCC[C@H]1C(N)=O)[C@@H](C)O)C(C)C)[C@@H](C)O)N(C)C(=O)[C@H](C)NC(=O)CN(C)C(=O)[C@H](Cc1ccccc1)NC(=O)[C@H](CO)NC(=O)[C@H](CO)NC(=O)[C@H](CO)NC(=O)[C@H](CO)NC(=O)[C@H](CCCNC(=N)N)NC(=O)[C@H](Cc1c[nH]cn1)NC(=O)[C@H](CC(C)C)NC(=O)[C@H](Cc1ccccc1)NC(=O)[C@H](CCC(=O)O)NC(=O)[C@H](C)NC(=O)[C@H](CC(C)C)NC(=O)[C@H](CCCNC(=N)N)NC(=O)[C@H](CCC(N)=O)NC(=O)[C@@H](NC(=O)[C@H](C)NC(=O)[C@@H]1CSSC[C@H](NC(=O)[C@H](CCCNC(=N)N)NC(=O)CC[C@H](NC(=O)CCCCCCCCCCCCCCCCCCC(=O)O)C(=O)O)C(=O)NCC(=O)N[C@@H]([C@@H](C)O)C(=O)N[C@@H](C)C(=O)N[C@@H]([C@@H](C)O)C(=O)N1)[C@@H](C)O [Compound 130, [19CD]-isoGlu-RC()GTATC()ATQRLAEFLHRSSSSF-Gly(Me)-A-Ile(Me)-LSSTEVGSETP-NH2] ({C20 diacid-γGlu}-RCGTATCATQRLAEFLHRSSSSF[Sar]A[NMeI]LSSTEVGSETP-NH2; disulfide 2-7) | 150 | SS (SS indicates solubility ≥ 1mg/ml) | SS (SS indicates solubility ≥ 1mg/ml) | SS (SS indicates solubility ≥ 1mg/ml) | SS (SS indicates solubility ≥ 1mg/ml) | SS (SS indicates solubility ≥ 1mg/ml) | SS (SS indicates solubility ≥ 1mg/ml) | SS (SS indicates solubility ≥ 1mg/ml) | 110 | – |
| CC[C@H](C)[C@@H](C(=O)N[C@@H](CC(C)C)C(=O)N[C@@H](CO)C(=O)N[C@@H](CO)C(=O)N[C@H](C(=O)N[C@@H](CCC(=O)O)C(=O)N[C@H](C(=O)NCC(=O)N[C@@H](CO)C(=O)N[C@@H](CCC(=O)O)C(=O)N[C@H](C(=O)N1CCC[C@H]1C(N)=O)[C@@H](C)O)C(C)C)[C@@H](C)O)N(C)C(=O)CN(C)C(=O)[C@H](Cc1ccccc1)NC(=O)[C@H](CO)NC(=O)[C@H](CO)NC(=O)[C@H](CO)NC(=O)[C@H](CO)NC(=O)[C@H](CCCNC(=N)N)NC(=O)[C@H](Cc1c[nH]cn1)NC(=O)[C@H](CC(C)C)NC(=O)[C@H](Cc1ccccc1)NC(=O)[C@H](CCC(=O)O)NC(=O)[C@H](C)NC(=O)[C@H](CC(C)C)NC(=O)[C@H](CCCNC(=N)N)NC(=O)[C@H](CCC(N)=O)NC(=O)[C@@H](NC(=O)[C@H](C)NC(=O)[C@@H]1CSSC[C@H](NC(=O)[C@H](CCCNC(=N)N)NC(=O)CC[C@H](NC(=O)CCCCCCCCCCCCCCCCCCC(=O)O)C(=O)O)C(=O)N[C@@H](CC(N)=O)C(=O)N[C@@H]([C@@H](C)O)C(=O)N[C@@H](C)C(=O)N[C@@H]([C@@H](C)O)C(=O)N1)[C@@H](C)O [Compound 77, [19CD]-isoGlu-RC()NTATC()ATQRLAEFLHRSSSSF-Gly(Me)-Ile(Me)-LSSTEVGSETP-NH2] ({C20 diacid-γGlu}-RCNTATCATQRLAEFLHRSSSSF[Sar][NMeI]LSSTEVGSETP-NH2; disulfide 2-7) | – | SS (SS indicates solubility ≥ 1mg/ml) | II (II indicates solubility ≤ 1 mg/ml) | II (II indicates solubility ≤ 1 mg/ml) | SS (SS indicates solubility ≥ 1mg/ml) | II (II indicates solubility ≤ 1 mg/ml) | SS (SS indicates solubility ≥ 1mg/ml) | SS (SS indicates solubility ≥ 1mg/ml) | 170 | 240 |
| CC[C@H](C)[C@@H](C(=O)N[C@@H](CC(C)C)C(=O)N[C@@H](CO)C(=O)N[C@@H](CO)C(=O)N[C@H](C(=O)N[C@@H](CCC(=O)O)C(=O)N[C@H](C(=O)NCC(=O)N[C@@H](CO)C(=O)N[C@@H](CCC(=O)O)C(=O)N[C@H](C(=O)N1C[C@H](O)C[C@H]1C(N)=O)[C@@H](C)O)C(C)C)[C@@H](C)O)N(C)C(=O)[C@H](C)NC(=O)CN(C)C(=O)[C@H](Cc1ccccc1)NC(=O)[C@H](CO)NC(=O)[C@H](CO)NC(=O)[C@H](CO)NC(=O)[C@H](CO)NC(=O)[C@H](CCCNC(=N)N)NC(=O)[C@H](Cc1c[nH]cn1)NC(=O)[C@H](CC(C)C)NC(=O)[C@H](Cc1ccccc1)NC(=O)[C@H](CCC(=O)O)NC(=O)[C@H](C)NC(=O)[C@H](CC(C)C)NC(=O)[C@H](CCCNC(=N)N)NC(=O)[C@H](CCC(=O)O)NC(=O)[C@@H](NC(=O)[C@H](C)NC(=O)[C@@H]1CSSC[C@H](NC(=O)[C@H](CCCCN)NC(=O)[C@H](CCCCN)NC(=O)CC[C@H](NC(=O)CCCCCCCCCCCCCCCCCCC(=O)O)C(=O)O)C(=O)N[C@@H](CCC(=O)O)C(=O)N[C@@H]([C@@H](C)O)C(=O)N[C@@H](C)C(=O)N[C@@H]([C@@H](C)O)C(=O)N1)[C@@H](C)O [Compound 168, [19CD]-isoGlu-KKC()ETATC()ATERLAEFLHRSSSSF-Gly(Me)-A-Ile(Me)-LSSTEVGSET-Hyp-NH2] ({C20 diacid-γGlu}-KKCETATCATERLAEFLHRSSSSF[Sar]A[NMeI]LSSTEVGSET[Hyp]-NH2; disulfide 3-8) | – | SS (SS indicates solubility ≥ 1mg/ml) | II (II indicates solubility ≤ 1 mg/ml) | SS (SS indicates solubility ≥ 1mg/ml) | SS (SS indicates solubility ≥ 1mg/ml) | SS (SS indicates solubility ≥ 1mg/ml) | SS (SS indicates solubility ≥ 1mg/ml) | SS (SS indicates solubility ≥ 1mg/ml) | 570 | 700 |
